The target of test [1] is T1, human GC-C (Homo sapiens, UniProt P25092, F281L). The following applies: Forte et al. 1999; cited from earlier work.
In test [2] the target is T1, human GC-C. The experiment in a line: cGMP competitive ELISA / Direct Cyclic GMP Enzyme Immunoassay, GC-C-expressing 293T cell line. It is filed as cell-based. More on the design: expressed in transfected cells; host or cells: 293T. The procedure:
Populations of cells were tested using functional criteria. The Direct Cyclic GMP Enzyme Immunoassay Kit (Cat. 900-014; AssayDesigns, Inc.) was used according to manufacturer's instructions: (http://www.assaydesigns.com/objects/catalog//product/extras/900-014.pdf). Cells were tested at 4 different densities in 96- or 384-well plates and responses were analyzed. The following conditions were used for the GC-C-expressing cell lines of the invention: • Clone screening: 1:2 and 1:3 splits of confluent 96-well plates 48 hour prior to assay, 30 minutes guanylin treatment. • Dose-response studies: densities of 20,000, 40,000, 60,000, 80,000, 120,000 and 160,000 per well, 30 minutes guanylin treatment (see Example 8). • Z′ studies: densities of 160,000 and 200,000 per well were used, 30 minutes guanylin treatment (see Example 9).
A competitive ELISA for detection of cGMP was used to characterize native GC-C function in the produced GC-C-expressing cell line. Cells expressing GC-C were maintained under standard cell culture conditions in Dulbecco's Modified Eagles medium (DMEM) supplemented with 10% fetal bovine serum, glutamine and HEPES and grown in T175 cm flasks. For the ELISA, the cells were plated into coated 96-well plates (poly-D-lysine).
Cells were washed twice with serum-free medium and incubated with 1 mM IBMX for 30 minutes. Desired activators (i.e., guanylin, 0.001-40 μM) were then added to the cells and incubated for 30-40 minutes. Supernatant was removed, and the cells were washed with TBS buffer. […]. This was followed by lysis with 0.1N HCl and a freeze/thaw cycle at −20° C./room temperature. […]
All of the following steps were performed at room temperature, unless otherwise indicated. […] The absorbance was then read at 405 nm on a SAFIRE^2™ plate reader (Tecan). […]
Z′ for the produced GC-C-expressing cell line was calculated using a direct competitive ELISA assay. […] Absorbance (corresponding to cGMP levels) in the two conditions was monitored using a SAFIRE^2™ plate reader (Tecan). […]
Background: ELISA stands for enzyme-linked immunosorbent assay.

The subject of test [3] is human bitter receptor-Gα15 cell lines. Kind of test: isoproterenol dose response (intracellular free calcium) in human bitter receptor-Gα15 cell lines. It is filed as cell-based. The following applies: change in intracellular free calcium, read-out: EC50 in a dose response curve conducted with the cell or cell line. From the text: In some embodiments, the bitter receptor is a functional bitter receptor. In some embodiments, the cell or cell line has a change in the concentration of intracellular free calcium when contacted with isoproterenol. […] In some embodiments, the cell or cell line has a signal to noise ratio of greater than 1.
According to yet another aspect of the present invention, a method of identifying a modulator of a bitter receptor function comprises: a) exposing a cell or cell line that stably expresses a bitter receptor to a test compound; and b) detecting a change in a function of the bitter receptor. In some embodiments, the detecting utilizes an assay that measures intracellular free calcium. In some embodiments, the intracellular free calcium is measured using one or more calcium-sensitive fluorescent dyes, a fluorescence microscope, and optionally a fluorescent plate reader, wherein at least one fluorescent dye binds free calcium. In some other embodiments, the intracellular free calcium is monitored by real-time imaging using one or more calcium-sensitive fluorescent dyes, wherein at least one fluorescent dye binds free calcium.
FIG. 16 is a graph showing dose response curves of relative responses to isoproterenol in 25 human bitter receptor-Gα15 cell lines.

The next test deals with human CFTR. The experiment in a line: Fluorescence membrane potential assay, CHO cell lines stably expressing CFTR. It is filed as cell-based. Conditions: 15,000 cells/well, 384-well plate; read-out: EC50 (cell fluorescence response). The method, then: CHO cell lines stably expressing CFTR were maintained under standard cell culture conditions in Ham's F12 medium supplemented with 10% fetal bovine serum and glutamine. On the day before assay, the cells were harvested from stock plates and plated into black clear-bottom 384 well assay plates. The assay plates were maintained in a 37° C. cell culture incubator under 5% CO2 for 22-24 hours. The media was then removed from the assay plates and blue membrane potential dye (Molecular Devices Inc.) diluted in loading buffer (137 mM NaCl, 5 mM KCl, 1.25 mM CaCl2, 25 mM HEPES, 10 mM glucose) was added and allowed to incubate for 1 hour at 37° C. […] The cellular response as a function of changes in cell fluorescence was monitored over time by a fluorescent plate reader (Hamamatsu FDSS). […] Z' value for the produced stable CFTR-expressing cell line was calculated using a high-throughput compatible fluorescence membrane potential assay. The fluorescence membrane potential assay protocol was performed substantially according to the protocol in Example 12. […] Cell responses in the two conditions were monitored using a fluorescent plate reader (Hamamatsu FDSS). Mean and standard deviations in the two conditions were calculated and Z' was computed using the method disclosed in Zhang et al., J Biomol Screen, 4(2): 67-73, (1999). […]

Bridge positions count the residues as written; N and C are the ends. Peptide text beside a SMILES is read from it.

T1 sequence (P25092 24-1073 F281L): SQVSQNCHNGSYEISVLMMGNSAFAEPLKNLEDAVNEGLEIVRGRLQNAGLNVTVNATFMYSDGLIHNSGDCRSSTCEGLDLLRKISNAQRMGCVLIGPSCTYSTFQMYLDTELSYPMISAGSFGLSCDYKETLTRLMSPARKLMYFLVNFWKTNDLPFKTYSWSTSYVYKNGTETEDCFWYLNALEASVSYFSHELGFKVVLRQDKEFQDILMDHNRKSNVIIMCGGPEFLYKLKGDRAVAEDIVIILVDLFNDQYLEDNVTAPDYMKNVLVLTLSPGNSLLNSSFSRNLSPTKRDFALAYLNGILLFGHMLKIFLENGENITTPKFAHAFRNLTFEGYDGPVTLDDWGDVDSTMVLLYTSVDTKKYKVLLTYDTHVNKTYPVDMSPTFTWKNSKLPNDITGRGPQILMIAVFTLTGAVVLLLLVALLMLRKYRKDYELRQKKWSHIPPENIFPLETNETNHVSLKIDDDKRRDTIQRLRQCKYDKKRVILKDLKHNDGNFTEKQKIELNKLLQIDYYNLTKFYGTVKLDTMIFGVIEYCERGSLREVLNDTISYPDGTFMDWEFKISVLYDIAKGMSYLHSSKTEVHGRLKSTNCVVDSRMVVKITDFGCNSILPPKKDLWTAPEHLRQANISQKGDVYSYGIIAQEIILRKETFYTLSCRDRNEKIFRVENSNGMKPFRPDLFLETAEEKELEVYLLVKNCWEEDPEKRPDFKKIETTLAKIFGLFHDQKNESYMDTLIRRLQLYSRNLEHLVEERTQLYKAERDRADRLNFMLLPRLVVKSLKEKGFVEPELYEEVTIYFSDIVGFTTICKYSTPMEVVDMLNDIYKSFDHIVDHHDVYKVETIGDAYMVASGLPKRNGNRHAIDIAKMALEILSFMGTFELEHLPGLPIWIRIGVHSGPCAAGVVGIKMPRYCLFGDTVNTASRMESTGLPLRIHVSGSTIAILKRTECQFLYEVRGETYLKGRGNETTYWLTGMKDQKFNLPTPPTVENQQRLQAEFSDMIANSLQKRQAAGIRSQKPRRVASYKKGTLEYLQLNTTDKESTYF

Broadly, the EC50 is the concentration that produces a half-maximal response. `CC[C@H](C)[C@@H]1NC(=O)[C@H](CCC(=O)O)NC(=O)[C@@H](NC(=O)[C@@H](NC(=O)CNC(=O)[C@@H]2CCCN2)[C@@H](C)O)CSSC[C@@H]2NC(=O)[C@H](C)NC(=O)[C@H](C)NC(=O)[C@H](Cc3ccc(O)cc3)NC(=O)[C@H](C)NC(=O)[C@H](CSSC[C@@H](C(=O)O)NC(=O)CNC(=O)[C@H]([C@@H](C)O)NC2=O)NC1=O` [guanylin] (H-PGTCEICAYAACTGC-OH; disulfide 4-12, 7-15 (inferred); N-terminus and C-terminus assumed): the “level of cGMP previously reported in other cell lines” value at human GC-C [1] was 3.5 pmol/mL. Also, the “absorbance in cGMP ELISA (reduction corresponds to increased cGMP levels)” value on human GC-C [2] (100 nM guanylin) was “Reduction in absorbance”. For the same compound, at human GC-C [2] (30 minutes treatment, 96-well plate, read-out: EC50 value (cGMP response)), the EC50 was determined as 1.1 nM. Further, the “level of cGMP” value at human GC-C [2] (produced GC-C-expressing cell line, low concentrations of guanylin) was 6 pmol/mL.

For the compound `CC(C)NCC(O)c1ccc(O)c(O)c1` (stereo not drawn) [isoproterenol], the concentration for a half-maximal effect (EC50) in test [3] lay within 1 to 20 nM.

With `C=C[C@@]1(C)CC(=O)[C@]2(O)[C@@]3(C)[C@@H](O)CCC(C)(C)[C@@H]3[C@H](O)[C@H](OC(C)=O)[C@@]2(C)O1` [forskolin], the EC50 in the test with human CFTR worked out at 256 nM.
